Source: PubChem BioAssay AID248 (DTP/NCI, 2004)
Where “and” joins values, the source holds several entries; their conditions need not be identical. Identical values can stand only once. Toxic doses and inconclusive results are not listed. Cut-off read from the data, not from the text of the source: active = T/C of 150% or more; inactive = T/C below 125%.

Tested on: L1210 leukemia ip in BDF1 mice, survival T/C
Assay: NCI In Vivo Anticancer Drug Screen. Data for tumor model L1210 Leukemia (intraperitoneal) in B6D2F1 (BDF1) mice
Details: endpoint: mean survival time, higher = longer survival
In short: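 Mice bearing the transplanted tumor received compound or vehicle. Survival of the treated group was divided by that of the vehicle-treated control group to give the ratio.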

[1] = dose: 100.0 mg/kg/injection, schedule: Q01DX001 (ip), vehicle: saline with Tween-80
[2] = dose: 200.0 mg/kg/injection, schedule: Q01DX001 (ip), vehicle: saline with Tween-80
[3] = dose: 400.0 mg/kg/injection, schedule: Q01DX001 (ip), vehicle: saline with Tween-80
[4] = dose: 100.0 mg/kg/injection, schedule: Q01DX009 (ip), vehicle: Klucel (hydroxypropylcellulose) (HPC)
[5] = dose: 200.0 mg/kg/injection, schedule: Q01DX009 (ip), vehicle: Klucel (hydroxypropylcellulose) (HPC)
[6] = dose: 400.0 mg/kg/injection, schedule: Q01DX009 (ip), vehicle: Klucel (hydroxypropylcellulose) (HPC)
[7] = dose: 100.0 mg/kg/injection, schedule: Q01DX001 (ip), vehicle: carboxymethylcellulose (CMC)
[8] = dose: 200.0 mg/kg/injection, schedule: Q01DX001 (ip), vehicle: carboxymethylcellulose (CMC)
[9] = dose: 400.0 mg/kg/injection, schedule: Q01DX001 (ip), vehicle: carboxymethylcellulose (CMC)
[10] = dose: 100.0 mg/kg/injection, schedule: Q04DX002 (ip), vehicle: Klucel (hydroxypropylcellulose) (HPC)
[11] = dose: 200.0 mg/kg/injection, schedule: Q04DX002 (ip), vehicle: Klucel (hydroxypropylcellulose) (HPC)
[12] = dose: 400.0 mg/kg/injection, schedule: Q04DX002 (ip), vehicle: Klucel (hydroxypropylcellulose) (HPC)
[13] = dose: 100.0 mg/kg/injection, schedule: Q04DX003 (ip), vehicle: saline with Tween-80
[14] = dose: 200.0 mg/kg/injection, schedule: Q04DX003 (ip), vehicle: saline with Tween-80
[15] = dose: 100.0 mg/kg/injection, schedule: Q04DX003 (ip), vehicle: Klucel (hydroxypropylcellulose) (HPC)
[16] = dose: 200.0 mg/kg/injection, schedule: Q04DX003 (ip), vehicle: Klucel (hydroxypropylcellulose) (HPC)
[17] = dose: 400.0 mg/kg/injection, schedule: Q04DX003 (ip), vehicle: Klucel (hydroxypropylcellulose) (HPC)
[18] = dose: 100.0 mg/kg/injection, schedule: Q01DX009 (ip), vehicle: saline
[19] = dose: 200.0 mg/kg/injection, schedule: Q01DX009 (ip), vehicle: saline

Measured: T/C

CCOC(=O)C(=O)Nc1ccc(Cl)cc1
inactive: [1] 96 % of control | [2] 96 % of control | [3] 95 % of control

CC(C)N1CCOCC1
inactive: dose: 25.0 mg/kg/injection, schedule: Q01DX009 (ip), vehicle: acetone 94 % of control | dose: 50.0 mg/kg/injection, schedule: Q01DX009 (ip), vehicle: acetone 105 % of control | dose: 100.0 mg/kg/injection, schedule: Q01DX009 (ip), vehicle: acetone 102 % of control

CNc1ccc(C(=O)NC(CCC(=O)O)C(=O)O)cc1C(F)(F)F (stereo not drawn)
inactive: [4] 98 % of control | [5] 96 % of control | [6] 98 % of control

CCOC(=O)CCCN(c1ccccc1C(=O)OC)S(=O)(=O)c1ccc(C)cc1
inactive: [7] 97 % of control | [8] 94 % of control | [9] 103 % of control

Cn1cc(NC(=O)c2cc(NC(=O)CN=C(N)N)cn2C)cc1C(=O)NCCC(=N)N
inactive: dose: 6.3 mg/kg/injection, schedule: Q01DX Z (ip), vehicle: saline 88 % of control | dose: 12.5 mg/kg/injection, schedule: Q01DX Z (ip), vehicle: saline 92 % of control

COc1ccc2c(c1)CSC(c1ccccc1)C2=O (stereo not drawn)
inactive: [10] 105 % of control | [11] 97 % of control | [12] 90 % of control

O=C1c2c(c(-c3ccccc3)c3ccccc3c2-c2ccccc2)C(=O)C2C(c3ccccc3)c3ccccc3C(c3ccccc3)C12 (stereo not drawn)
inactive: [10] 113 % of control | [11] 106 % of control | [12] 98 % of control

CCCCOC(=O)CCCCC(=O)OC(C)C(=O)OCCCC (stereo not drawn)
inactive: dose: 100.0 mg/kg/injection, schedule: Q01DX001 (ip), vehicle: saline 102 % of control | dose: 200.0 mg/kg/injection, schedule: Q01DX001 (ip), vehicle: saline 102 % of control | dose: 400.0 mg/kg/injection, schedule: Q01DX001 (ip), vehicle: saline 89 % of control

O=C1CC(Cl)C(=O)N1c1ccccc1 (stereo not drawn)
inactive: dose: 75.0 mg/kg/injection, schedule: Q01DX009 (ip), vehicle: saline with Tween-80 112 % of control | dose: 75.0 mg/kg/injection, schedule: Q04DX003 (ip), vehicle: saline with Tween-80 96 % of control | dose: 150.0 mg/kg/injection, schedule: Q01DX009 (ip), vehicle: saline with Tween-80 102 % of control | dose: 150.0 mg/kg/injection, schedule: Q04DX003 (ip), vehicle: saline with Tween-80 102 % of control | dose: 300.0 mg/kg/injection, schedule: Q04DX003 (ip), vehicle: saline with Tween-80 101 % of control

CN(C)c1ccc(N=Nc2ccncc2)cc1
inactive: dose: 25.0 mg/kg/injection, schedule: Q01DX009 (ip), vehicle: Klucel (hydroxypropylcellulose) (HPC) 98 % of control | dose: 50.0 mg/kg/injection, schedule: Q01DX009 (ip), vehicle: Klucel (hydroxypropylcellulose) (HPC) 98 % of control | [4] 94 % of control

OCCN1CCC2(CC1)SSC1(CCN(CCO)CC1)S2
inactive: dose: 50.0 mg/kg/injection, schedule: Q01DX009 (ip), vehicle: saline with Tween-80 104 % of control | dose: 100.0 mg/kg/injection, schedule: Q01DX009 (ip), vehicle: saline with Tween-80 98 % of control | [13] 100 % of control | dose: 200.0 mg/kg/injection, schedule: Q01DX009 (ip), vehicle: saline with Tween-80 93 % of control | [14] 104 % of control

CC(N)C(C)O (stereo not drawn)
inactive: dose: 100.0 mg/kg/injection, schedule: Q04DX003 (ip), vehicle: saline 96 % of control | dose: 200.0 mg/kg/injection, schedule: Q04DX003 (ip), vehicle: saline 101 % of control | dose: 400.0 mg/kg/injection, schedule: Q04DX003 (ip), vehicle: saline 101 % of control

Cc1ccc(C)c(OS(=O)(=O)c2ccc([N+](=O)[O-])cc2)c1
inactive: [4] 98 % of control | [15] 100 % of control | [5] 92 % of control | [16] 91 % of control | [6] 97 % of control | [17] 89 % of control

COC1=C(NC(C)(C)C)C(=O)C(OC)=C(NC(C)(C)C)C1=O
inactive: dose: 50.0 mg/kg/injection, schedule: Q01DX001 (ip), vehicle: carboxymethylcellulose (CMC) 103 % of control | [7] 97 % of control | [4] 109 % of control | [15] 98 % of control | [8] 109 % of control | [5] 95 % of control | [16] 96 % of control | [9] 109 % of control | [6] 106 % of control | [17] 100 % of control

N#Cc1cnn(C(N)=O)c1N
inactive: [15] 100 % of control | [16] 95 % of control | [17] 100 % of control

COC(=O)CC/C(C)=N\NC(=O)c1ccc[n+](C)c1
inactive: dose: 50.0 mg/kg/injection, schedule: Q01DX009 (ip), vehicle: saline 100 % of control | [18] 96 % of control | [19] 93 % of control

S=C(Nc1ccc(Cl)cc1)Nc1ccc(Cl)cc1
inactive: [15] 108 % of control | [16] 103 % of control | [17] 97 % of control

O=C1C=C(O)C2=C(CCCC2)C1=O
inactive: dose: 100.0 mg/kg/injection, schedule: Q01DX001 (ip), vehicle: water 96 % of control

CN(C)c1nc(N)c(N=O)c(N)n1
inactive: dose: 100.0 mg/kg/injection, schedule: Q04DX002 (ip), vehicle: saline with Tween-80 111 % of control | dose: 200.0 mg/kg/injection, schedule: Q04DX002 (ip), vehicle: saline with Tween-80 107 % of control | dose: 400.0 mg/kg/injection, schedule: Q04DX002 (ip), vehicle: saline with Tween-80 104 % of control

O=C(/C=C\c1ccc(O)c(O)c1)OC1C(O)CC(OC(=O)/C=C/c2ccc(O)c(O)c2)(C(=O)O)CC1O (stereo not drawn)
inactive: [18] 105 % of control | [19] 91 % of control | dose: 400.0 mg/kg/injection, schedule: Q01DX009 (ip), vehicle: saline 94 % of control

CN(C)N=Nc1ccc(S(N)(=O)=O)cc1
inactive: dose: 50.0 mg/kg/injection, schedule: Q01DX001 (ip), vehicle: saline with Tween-80 98 % of control | dose: 50.0 mg/kg/injection, schedule: Q04DX003 (ip), vehicle: saline with Tween-80 103 % of control and 105 % of control | [1] 102 % of control | [13] 103 % of control and 105 % of control | [2] 104 % of control | [14] 105 % of control | [3] 105 % of control | dose: 400.0 mg/kg/injection, schedule: Q04DX003 (ip), vehicle: saline with Tween-80 106 % of control and 112 % of control

COC(=O)NS(=O)(=O)C1=Cc2cccc3cccc1c23
inactive: [10] 103 % of control | [11] 100 % of control | [12] 113 % of control

O=C(NCCBr)c1cccc2ccccc12
inactive: [4] 106 % of control | [5] 97 % of control | [6] 95 % of control

N#CC1(O)C(Cl)(Cl)CCCC1(Cl)Cl
inactive: dose: 6.25 mg/kg/injection, schedule: Q01DX009 (ip), vehicle: saline with Tween-80 91 % of control | dose: 12.5 mg/kg/injection, schedule: Q01DX009 (ip), vehicle: saline with Tween-80 97 % of control | dose: 25.0 mg/kg/injection, schedule: Q01DX009 (ip), vehicle: saline with Tween-80 94 % of control
